We go through 4 molecules from article PMC9554870, “Mesoporous Silica Nanoparticles Improve Oral Delivery of Antitubercular Bicyclic Nitroimidazoles” (ACS Biomaterials Science & Engineering, 2021).

Molecules are shown by their SMILES. In brackets after ≈: the same amount, converted by molar mass.

Data set [1] concerns M. tuberculosis H37Rv strain. Put plainly: M. tuberculosis H37Rv minimum inhibition assay (resazurin reduction microplate assay). Particulars: Mycobacterium tuberculosis, lowest concentration with >90% inhibition of growth, free compounds predissolved in DMSO, nanoformulations dispersed in assay media, n = 4–6, read-out: MIC90%Inhib H37Rv. Format: cell-based. A general note: Alamar Blue is a resazurin reagent that responds to reducing activity.

A short description of data set [2]: Aqueous (saturated water) solubility by LC-UV. Format: physicochemical. Particulars: deionized water, 37 °C, encapsulated samples 10% w/w, n = 3. Here is the method: The solubility of pretomanid and MCC7433 was measured before and after loading into nanoparticles by using Shimadzu LCMS-2020 (Kyoto, Japan) with a variable-wavelength UV–visible detector. Briefly, 0.5 mg of compound equivalent particles (or 5 mg of 10 wt % compound loaded nanoparticles) were dispersed in 750 μL of deionized water. Samples were incubated at 37 °C on a rotator for 24 and 48 h. Samples were then centrifuged at 12 000 rpm for 20 min. The supernatant was collected and centrifuged for another round at 12 000 rpm, 20 min before being analyzed by LC-UV. The mobile phase was 0.05% formic acid in water (solvent A) and 0.05% formic acid in acetonitrile (solvent B). LC-MS condition: column Zorbax Eclipse XDB-Phenyl, 3.0 × 100 mm, 3.5 μm; column temperature: 40 °C; flow: 1 mL/min; injection volume: 5 μL; gradient timetable: 0.00 min, 5% B; 0.50 min, 5% B; 3.00 min, 100% B; 4.2 min, 100% B; 5.00 min, 5% B.

The next data set is described as follows: in vivo. Particulars: male, CD-1, mouse, po, 20 mg/kg.
On the set-up of data set [3]: method as in PMID 30562958. Particulars: vorinostat encapsulated within pristine and functionalized MCM-41; cited from earlier work.

A word on the MIC90: it is an inhibitory concentration at the 90% level, which refers to growth in some studies and to a panel of isolates in others. In general, solubility refers to how much of the substance goes into solution per volume. High values mean much dissolved substance, low ones little dissolved substance. As usually defined, the Tmax is the time from dosing to the highest level. As usually defined, the half-life is the time in which the quantity being followed falls by half. The low end stands for rapid decline, the high end for slow decline. Regarding `O=c1c2nc([N+](=O)[O-])cn2ccn1Cc1ccc(OC(F)(F)F)cc1` [MCC7433], the MIC90 in data set [1] lay within 0.25 to 0.5 µg/mL (≈ 0.706 to 1.41 µM). This molecule returned a solubility at 24 h in data set [2] of 0.33 µg/mL (≈ 0.932 µM). Further, in the data set “in vivo”, the Tmax is 5.33 h and the half-life was 3.21 h.
For the molecule `O=[N+]([O-])c1cn2c(n1)OC[C@@H](OCc1ccc(OC(F)(F)F)cc1)C2` [pretomanid], the MIC90 in data set [1] was 0.25 µg/mL (≈ 0.696 µM). Besides, in data set [2], the solubility at 24 h was 15.5 µg/mL (≈ 43.1 µM).
With `O=C(CCCCCCC(=O)Nc1ccccc1)NO` [vorinostat], in data set [3], the “fold improvement of solubility compared to the free drug” value was 2.6–4.3 fold.
On to `NNC(=O)c1ccncc1` [isoniazid], for which the MIC90 in data set [1] is 0.04 µg/mL (≈ 0.292 µM).
